Test results as given in patent US20240376076A1, “INHIBITORS TARGETING UBIQUITIN SPECIFIC PROTEASE 7 (USP7)” (Dana-Farber Cancer Institute, Inc., priority 2021, published 2024).

What was measured:
[1] = molecular target: T1, USP7, Active human recombinant protein (Homo sapiens, UniProt Q93009); test: USP7 assay (Ubiquitin-Rhodamine 110 enzymatic assay); format: biochemical; settings: read-out: IC50
T1 construct: purchased CP Lot; 20200225001
Outline: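 Kinetic 20-min fluorescence read (485/535 nm) of ubiquitin-rhodamine 110 (190 nM final) cleavage by 0.05 nM USP7 gave slopes. Compounds, 10 concentrations in 3-fold steps, had 15 min RT preincubation with enzyme first. Inhibition relative to max (enzyme+substrate) and min (substrate only) signals, fitted to IC50.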

[2] = plasma stability (Plasma Assay Protocol); format: in vitro ADME; settings: 37° C., t1/2 extrapolated if >50% remaining at 60 min, ∞ if near 100% remaining
Description: ND refers to not disclosed.
• 1. Preheated 0.05 M sodium phosphate and 0.07 M NaCl buffer, pH 7.4. Dissolved 14.505 g/L Na2HPO4·12H2O, 1.483 g/L NaH2PO4·2H2O and 4.095 g/L NaCl in deionized water. The basic solution was then titrated with the phosphoric acid to pH 7.40. Stored in fridge up to 7 days. Checked pH on the day of experiment and adjust if outside specification of 7.4+/−0.1. • 2. Plasma preparation: • Thawed frozen plasma by placing at 37° C. quickly. Centrifuged plasma at 3,000 rpm for 8 minutes to remove clots, pipetted and pooled the supernatant as the plasma to be used in the experiment. Checked and recorded the pH of the plasma. Only used plasma within the range of pH 7.4 to pH 8. If higher than pH 8, discarded the plasma. By using a 5% CO2 incubator and PBS buffer, a pH of 7.4 was reached after the 4 hour equilibrium dialysis time. Put the plasma on ice until used. • 3. Tested compounds and reference compounds spiking solution: • 0.5 mM test compounds spiking solution A: Added 10 μL of 10 mM test compounds stock solution to 190 μL DMSO. • 0.02 mM spiking solution B: Added 40 μL of spiking solution A to 960 μL of […] Sodium phosphate buffer with 0.5% BSA.
Pre-warmed the plasma and spiking solution B at 37° C. for 5 min. Added 10 μL of pre-warmed spiking solution B into the wells designated for all the time points (5, 15, 30, 45, 60 min).
For 0-min, added 400 μL of acetonitrile (ACN) containing the internal standard (IS) to the wells of 0-min plate and then added 90 μL of plasma. Added 90 μL of pre-warmed plasma into the wells designated for the time points (0, 5, 15, 30, 45, 60 min), and started timing. At 5, 15, 30, 45, 60 min, added 400 μL of ACN containing IS to the wells of corresponding plates, respectively, to stop the reaction. After quenching, shook the plates at the vibrator (IKA, MTS 2/4) for 10 min (600 rpm/min) and then centrifuged at 5594 g for 15 min (Thermo Multifuge×3R). Transferred 50 μL of the supernatant from each well into a 96-well sample plate containing 50 μL of ultra pure water (Millipore ZMQS50F01) for LC/MS analysis.

[3] = mouse liver microsomal stability (Microsome Assay Protocol); format: in vitro ADME; settings: pH 7.4; mouse liver microsomes, NADPH, 37° C.; read-out: MLM t1/2, min
Outline: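 Compound at 1.5 μM was mixed with 0.75 mg/mL mouse liver microsomes in 0.1 M potassium phosphate, 1.0 mM EDTA, pH 7.4, then started with NADPH from a 6 mM stock after 5 min preincubation at 37 °C. Samples taken at 0, 5, 15, 30 and 45 min were quenched with acetonitrile containing internal standard and analysed by LC/MS.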

T1 sequence (Q93009 whole entry): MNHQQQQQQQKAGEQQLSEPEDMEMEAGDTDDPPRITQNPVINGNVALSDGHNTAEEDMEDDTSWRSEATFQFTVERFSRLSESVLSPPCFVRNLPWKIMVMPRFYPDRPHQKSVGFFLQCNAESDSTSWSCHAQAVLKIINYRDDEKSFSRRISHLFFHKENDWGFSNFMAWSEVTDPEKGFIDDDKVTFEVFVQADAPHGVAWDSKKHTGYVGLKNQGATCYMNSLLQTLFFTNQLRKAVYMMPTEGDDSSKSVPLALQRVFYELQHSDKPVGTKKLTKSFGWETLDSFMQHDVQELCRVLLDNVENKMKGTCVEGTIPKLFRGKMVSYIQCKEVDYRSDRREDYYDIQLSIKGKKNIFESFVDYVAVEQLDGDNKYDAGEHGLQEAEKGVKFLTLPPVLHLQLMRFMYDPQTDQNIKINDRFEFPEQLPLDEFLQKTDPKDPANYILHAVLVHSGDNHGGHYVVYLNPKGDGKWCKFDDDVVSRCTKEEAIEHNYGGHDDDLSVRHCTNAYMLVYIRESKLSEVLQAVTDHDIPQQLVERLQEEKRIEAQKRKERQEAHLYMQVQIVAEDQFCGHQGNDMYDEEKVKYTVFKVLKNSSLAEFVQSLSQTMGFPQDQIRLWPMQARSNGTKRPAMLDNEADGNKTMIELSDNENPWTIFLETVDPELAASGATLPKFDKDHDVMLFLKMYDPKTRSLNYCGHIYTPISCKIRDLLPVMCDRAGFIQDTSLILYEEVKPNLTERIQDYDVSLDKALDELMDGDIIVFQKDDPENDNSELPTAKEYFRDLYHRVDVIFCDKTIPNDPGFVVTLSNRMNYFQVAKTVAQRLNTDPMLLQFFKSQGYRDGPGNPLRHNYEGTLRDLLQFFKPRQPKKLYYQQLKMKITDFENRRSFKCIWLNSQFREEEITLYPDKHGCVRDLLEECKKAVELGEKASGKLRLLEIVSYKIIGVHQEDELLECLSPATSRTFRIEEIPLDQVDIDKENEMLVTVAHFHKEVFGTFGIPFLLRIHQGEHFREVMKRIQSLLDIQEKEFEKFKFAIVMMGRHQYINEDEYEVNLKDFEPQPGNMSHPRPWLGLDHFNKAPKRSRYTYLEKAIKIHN

In the case of `CN(C)CCCOc1ccc2c(=O)n(CC3(O)CCN(C(=O)C(CCCNC(=O)c4ccc5c(Cl)cc(C6CC6)nc5c4)Cc4ccccc4)CC3)cnc2c1` (centres unmarked) [Compound 116], the IC50 [1] is reported as under 20 nM, the “Plasma t1/2, min” value [2] is reported as “∞*” and the half-life at 1 µM [3] is reported as 27.1 min.
With `CN1CCN(CCC(=O)Nc2ccc3c(=O)n(CC4(O)CCN(C(=O)[C@@H](CCCNC(=O)c5ccc6c(Cl)cc(-c7cnn(CC(F)(F)F)c7)nc6c5)Cc5ccccc5)CC4)cnc3c2)CC1` [Compound 20] the IC50 [1] was 20 to 100 nM, the half-life at 2 µM [2] was 226 min and the half-life at 1 µM [3] was 25.8 min.
Work on `O=C(NCCC[C@@H](Cc1ccccc1)C(=O)N1CCC(O)(Cn2cnc(NCCN3CCCC3)cc2=O)CC1)c1ccc2c(Cl)ccnc2c1` [Compound 13, N-(4-benzyl-5-(4-hydroxy-4-((6-oxo-4-(2-(pyrrolidin-1-yl)ethylamino)pyrimidin-1(6H)-yl)methyl)piperidin-1-yl)-5-oxopentyl)-4-chloroquinoline-7-carboxamide] yielded an IC50 [1] of 20 to 100 nM and a half-life at 2 µM [2] of 91.9 min.
For `CN(C)C1CCN(c2ccc3c(=O)n(CC4(O)CCN(C(=O)[C@H](CCCNC(=O)c5ccc6c(Cl)cc(C7CC7)nc6c5)Cc5ccccc5)CC4)cnc3c2)CC1` [Compound 123], the IC50 [1] was under 20 nM, the half-life at 2 µM [2] was 178 min and the half-life at 1 µM [3] was 24.3 min.
In the case of `CN(C)CCCOc1ccc2c(=O)n(CC3(O)CCN(C(=O)[C@H](CCCNC(=O)c4ccc5c(Cl)c(C(=O)NC6CC6)cnc5c4)Cc4ccccc4)CC3)cnc2c1`, the IC50 [1] is reported as under 20 nM, the half-life at 2 µM [2] is reported as 28.9 min and the half-life at 1 µM [3] is reported as 44.1 min.
`C=CS(=O)(=O)Nc1ccccc1-c1ccc(C(=O)N2CCC(O)(Cn3cnc4cc(NC(=O)CCN5CCN(C)CC5)ccc4c3=O)CC2)cc1` [Compound 23, N-(3-((4-hydroxy-1-(2′-(vinylsulfonamido)-[1,1′-biphenyl]-4-carbonyl)piperidin-4-yl)methyl)-4-oxo-3,4-dihydroquinazolin-7-yl)-3-(4-methylpiperazin-1-yl)propanamide] showed an IC50 [1] of 20 to 100 nM, a half-life at 2 µM [2] of 10.5 min and a half-life at 1 µM [3] of 49.3 min.
In the case of `CN(C)CCC(=O)Nc1ccc2c(=O)n(CC3(O)CCN(C(=O)[C@@H]4CCN(CCNC(=O)c5ccc6c(Cl)ccnc6c5)C[C@H]4c4ccccc4)CC3)cnc2c1` [Compound 75], the IC50 [1] is reported as under 20 nM, the half-life at 2 µM [2] is reported as 67.4 min and the half-life at 1 µM [3] is reported as 69.4 min.
With `CN1CCN(c2ccc3c(=O)n(CC4(O)CCN(C(=O)[C@H](CCCNC(=O)c5ccc6c(Cl)cc(C7CC7)nc6c5)Cc5ccccc5)CC4)cnc3c2)CC1` [Compound 122] the IC50 [1] was 20 to 100 nM, the half-life at 2 µM [2] was 226 min and the half-life at 1 µM [3] was 3090 min.
In the case of `CN(C)CCCOc1ccc2c(=O)n(CC3(O)CCN(C(=O)[C@@H](CCCNC(=O)c4ccc5c(Cl)c(C(N)=O)cnc5c4)Cn4ccc(F)n4)CC3)cnc2c1`, the IC50 [1] is reported as under 20 nM, the half-life at 2 µM [2] is reported as 85.9 min and the half-life at 1 µM [3] is reported as 223 min.
Work on `CN(C)CCC(=O)Nc1ccc2c(=O)n(CC3(O)CCN(C(=O)C(CCCNC(=O)c4ccc5c(F)ccnc5c4)Cc4ccccc4)CC3)cnc2c1` (centres unmarked) [Compound 87] yielded an IC50 [1] of under 20 nM, a half-life at 2 µM [2] of 60.8 min and a half-life at 1 µM [3] of 23.2 min.
In the case of `CN1CCN(CCC(=O)Nc2ccc3c(=O)n(CC4(O)CCN(C(=O)[C@@H](CCCNC(=O)c5ccc6c(Cl)c7c(nc6c5)CCCC7)Cc5ccccc5)CC4)cnc3c2)CC1`, the IC50 [1] is reported as under 20 nM, the half-life at 2 µM [2] is reported as over 500 min and the half-life at 1 µM [3] is reported as 2 min.
`CN1CCN(CCC(=O)Nc2ccc3c(=O)n(CC4(O)CCN(C(=O)[C@@H](CCCNC(=O)c5ccc6c(Cl)cc(-c7ccc(F)cc7)nc6c5)Cc5ccccc5)CC4)cnc3c2)CC1` [Compound 5, (S)—N-(4-benzyl-5-(4-hydroxy-4-((7-(3-(4-methylpiperazin-1-yl)propanamido)-4-oxoquinazolin-3(4H)-yl)methyl)piperidin-1-yl)-5-oxopentyl)-4-chloro-2-(4-fluorophenyl)quinoline-7-carboxamide] showed an IC50 [1] of 100 to 1000 nM, a half-life at 2 µM [2] of 320 min and a half-life at 1 µM [3] of 18 min.
Work on `CN(C)CCC(=O)Nc1ccc2c(=O)n(CC3(O)CCN(C(=O)C(CCCNC(=O)c4ccc5c(Cl)ccnc5c4)Cc4ccccc4)CC3)cnc2c1` (centres unmarked) [Compound 62] yielded an IC50 [1] of 20 to 100 nM, a half-life at 2 µM [2] of 194 min and a half-life at 1 µM [3] of 12.3 min.
Compound `O=C(NCCCC(Cn1ccc(F)n1)C(=O)N1CCC(O)(Cn2cnc3ccccc3c2=O)CC1)c1ccc2c(Cl)c3c(nc2c1)CCCC3` (centres unmarked) has an IC50 [1] of under 20 nM, a half-life at 2 µM [2] of 394 min and a half-life at 1 µM [3] of 0.56 min.
`O=C(NCCN1CCC(C(=O)N2CCC(O)(Cn3cnc4cc(OCCN5CCNCC5)ccc4c3=O)CC2)C(c2ccccc2)C1)c1ccc2c(F)ccnc2c1` (centres unmarked) [Compound 109] gave an IC50 [1] of under 20 nM, a half-life at 2 µM [2] of 102 min and a half-life at 1 µM [3] of 22.4 min.
`CN(C)CCC(=O)Nc1ccc2c(=O)n(CC3(O)CCN(C(=O)C(CCc4ncc(-c5ccc6c(Cl)ccnc6c5)o4)Cc4ccccc4)CC3)cnc2c1` (centres unmarked) [Compound 77] gave an IC50 [1] of 20 to 100 nM, a half-life at 2 µM [2] of 161 min and a half-life at 1 µM [3] of 1.73 min.
With `CN(C)CCOc1ccc2c(=O)n(CC3(O)CCN(C(=O)[C@H](CCCNC(=O)c4ccc5c(Cl)cc(C6CC6)nc5c4)Cc4ccccc4)CC3)cnc2c1` [Compound 117] the IC50 [1] was 20 to 100 nM, the “Plasma t1/2, min” value [2] was “∞*” and the half-life at 1 µM [3] was 20.3 min.
`CN(C)CCCOc1ccc2c(=O)n(CC3(O)CCN(C(=O)[C@H](Cc4ccccc4)N(C)CCNC(=O)c4ccc5c(Cl)c(C(N)=O)cnc5c4)CC3)cnc2c1` showed an IC50 [1] of over 1000 nM, a half-life at 2 µM [2] of 149 min and a half-life at 1 µM [3] of 101 min.
`CN(C)CCCOc1ccc2c(=O)n(CC3(O)CCN(C(=O)C(CCCNC(=O)c4ccc5c(Cl)c(C(N)=O)cnc5c4)Cn4ccc(F)n4)CC3)cnc2c1` (centres unmarked) gave an IC50 [1] of under 20 nM, a half-life at 2 µM [2] of 85.9 min and a half-life at 1 µM [3] of 131 min.
Work on `CN(C)CCCOc1ccc2c(=O)n(CC3(O)CCN(C(=O)C(CCCNC(=O)c4ccc5c(Cl)c6c(nc5c4)CCCC6)Cn4ccc(F)n4)CC3)cnc2c1` (centres unmarked) yielded an IC50 [1] of under 20 nM, a half-life at 2 µM [2] of 396 min and a half-life at 1 µM [3] of 2.46 min.
With `CN(C)CCC(=O)Nc1ccc2c(=O)n(CC3(O)CCN(C(=O)C4CCN(CCNC(=O)c5ccc6c(Cl)ccnc6c5)C[C@H]4c4ccccc4)CC3)cnc2c1` (some centres unmarked) [Compound 73] the IC50 [1] was 20 to 100 nM, the half-life at 2 µM [2] was 191 min and the half-life at 1 µM [3] was 46.8 min.
With `CN(C)CCCOc1ccc2c(=O)n(CC3(O)CCN(C(=O)[C@@H](CCCNC(=O)c4ccc5c(Cl)c6c(nc5c4)CCCC6)Cn4ccc(F)n4)CC3)cnc2c1` the half-life at 2 µM [2] was 127 min and the half-life at 1 µM [3] was 6.96 min.
`C=CC(=O)Nc1ccccc1-c1ccc(C(=O)N2CCC(O)(Cn3cnc4cc(NC(=O)CCN5CCN(C)CC5)ccc4c3=O)CC2)cc1` [Compound 24, N-(4′-(4-hydroxy-4-((7-(3-(4-methylpiperazin-1-yl)propanamido)-4-oxoquinazolin-3(4H)-yl)methyl)piperidine-1-carbonyl)biphenyl-2-yl)acrylamide] gave an IC50 [1] of over 1000 nM and a half-life at 2 µM [2] of 23 min.
With `CN1CCN(CCC(=O)Nc2ccc3c(=O)n(CC4(O)CCN(C(=O)[C@@H](CCCNC(=O)c5ccc6c(Cl)ccnc6c5)Cc5ccccc5)CC4)cnc3c2)CC1` [Compound 59, (S)—N-(4-benzyl-5-(4-hydroxy-4-((7-(3-(4-methylpiperazin-1-yl)propanamido)-4-oxoquinazolin-3(4H)-yl)methyl)piperidin-1-yl)-5-oxopentyl)-4-chloroquinoline-7-carboxamide] the IC50 [1] was 20 to 100 nM and the half-life at 2 µM [2] was 78.9 min.
